In patent publication US20090258942A1 (priority 2008, published 2009):

Columns and labels:
[1] = test system: MCF-7 breast cancer xenografts; test: MCF-7 kidney capsule xenografts; conditions: 28 days; E2 0.5 mg/h, Calycosin 2.5 mg/h in saline; FIG. 5
Description: MCF-7 xenografts were introduced into nude mouse kidneys. Mice were randomized to three treatment groups. […] Each treatment group was treated for 28 days, after which mice were euthanized and the kidneys containing the xenografts were excised, photographed and weighed.

ERβ = ERβ (Homo sapiens, UniProt Q92731); conditions: in the presence of ERβ
Description: (§1) Light emission at 560 nm is conveniently quantified in optical density units (O.D.560 nm).

TNF-RE tkLuc = TNF-RE tkLuc reporter, effect of antiestrogens; format: cell-based; conditions: in contrast to E2
Description: as §1

breast cancer = conditions: among 5129 women in the treatment group; median follow-up 40 months; cited from earlier work
[2] = biological target: estrogen receptor beta (ERβ) (Homo sapiens, UniProt Q92731); conditions: added to (a), (b), (c) or (d); FIGS. 4a-4d
[3] = test system: primary invasive breast cancer; conditions: women at high risk for breast cancer; cited from earlier work
[4] = test system: estrogen receptor-positive breast cancer; conditions: five years of therapy; cited from earlier work

Sequence of ERβ (Q92731 whole entry): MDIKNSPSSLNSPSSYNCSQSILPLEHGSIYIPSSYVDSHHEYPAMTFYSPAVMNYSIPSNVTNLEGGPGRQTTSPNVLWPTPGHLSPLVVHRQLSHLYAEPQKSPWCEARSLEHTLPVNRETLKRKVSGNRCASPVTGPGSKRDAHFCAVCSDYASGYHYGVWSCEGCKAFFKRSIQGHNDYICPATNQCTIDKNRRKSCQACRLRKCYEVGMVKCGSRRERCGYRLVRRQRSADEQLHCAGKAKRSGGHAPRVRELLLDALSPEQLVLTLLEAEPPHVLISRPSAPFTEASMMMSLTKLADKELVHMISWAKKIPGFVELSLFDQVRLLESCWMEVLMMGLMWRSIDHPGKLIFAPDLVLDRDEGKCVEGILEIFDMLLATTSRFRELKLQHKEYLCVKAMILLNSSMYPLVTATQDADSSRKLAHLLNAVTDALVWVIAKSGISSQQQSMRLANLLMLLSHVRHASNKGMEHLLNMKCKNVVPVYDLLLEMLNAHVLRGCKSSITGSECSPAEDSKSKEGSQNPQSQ
Sequence of estrogen receptor beta (ERβ) (Q92731 whole entry): as above

Q: For `COc1ccc(-c2coc3cc(O)ccc3c2=O)cc1O` [Calycosin, 3-(4-methoxy-3-hydroxyphenyl)-7-hydroxycoumarin], which “growth of MCF-7 kidney capsule xenografts as compared to control” value [1] is on record?
A: inhibits the growth of MCF-7 breast cancer xenografts

Q: For `C[C@]12CC[C@@H]3c4ccc(O)cc4CC[C@H]3[C@@H]1CC[C@@H]2O` [E2, estradiol], which “repression of TNF-α activation of TNF-RE tkLuc” value (ERβ) is on record?
A: 60-80%

Q: With `C[C@]12CC[C@@H]3c4ccc(O)cc4C[C@@H](CCCCCCCCC[S+]([O-])CCCC(F)(F)C(F)(F)F)[C@H]3[C@@H]1CC[C@@H]2O` (stereo partly shown) [ICI 182780] as the compound, how does the “activation of TNF-RE tkLuc” value (TNF-RE tkLuc) read?
A: 2 fold

Q: For `O=C(c1ccc(OCCN2CCCCC2)cc1)c1c(-c2ccc(O)cc2)sc2cc(O)ccc12` [raloxifene], which “activation of TNF-RE tkLuc” value (TNF-RE tkLuc) is on record?
A: 2 fold

Q: And the “cases of breast cancer” value (breast cancer)?
A: 13 cases

Q: What about the “effect of addition on ERE activation by compounds (a)-(d) through ERβ” value [2] of the same compound?
A: reduced this activation

Q: Which “activation of TNF-RE tkLuc” value (TNF-RE tkLuc) does the source give for `CC/C(=C(\c1ccccc1)c1ccc(OCCN(C)C)cc1)c1ccccc1` [tamoxifen] here?
A: 2 fold

Q: And the “reduction of the risk of primary invasive breast cancer” value [3]?
A: 49%

Q: And the “reduction of mortality from breast cancer” value [4]?
A: 22%

Q: What about the “reduction of the risk of recurrences” value [4] of the same compound?
A: 42%
